Values quoted from earlier work as cited in patent US7593820B2, “Crystal structure of human Janus Kinase 2 (JAK2) and uses thereof” (Cytopia Research Pty Ltd, priority 2005, dated 2009).

Test system: other PTKs that possess either a Thr or Val
Conditions: Thr or Val at gatekeeper position

- IC50 for other PTKs that possess either a Thr or Val: uM range
SMILES: CC(C)(C)c1nc2c3cc[nH]c(=O)c3c3cc(F)ccc3c2[nH]1 [Compound 6, 2-tert-Butyl-9-fluoro-3,6-dihydro-7H-benz[h]imidazo[4,5-f]isoquinolin-7-one]
